Results reported in patent publication US11701433B2, “Complexes for delivery of antigenic peptides” (The Regents of the University of Michigan, priority 2017, dated 2023).

Experiments:
STING = test: Immunoblot of STING protein level in SOX2-expressing cells treated with inhibitors of autophagy; type: cell-based; settings: HEK-293T and UMSCC22b cells
Description: Cell culture: UMSCC22b and UMSCC47 were obtained from the U-M Head and Neck Cancer SPORE. PCI-13 was obtained from the University of Pittsburgh Head and Neck Cancer SPORE. HEK-293T was purchased from ATCC. The human HNSCC cells and HEK293T cells were maintained in complete DMEM medium. The MOC2-E6/E7 cells were obtained from Dr. David Mooney at Harvard University, the parental and derivative cell lines were cultured in 30% F12 nutrient mix (Thermo Fisher Scientific, Waltham, Mass.), 5% FBS, puromycin […], insulin (4 mg/ml), hydrocortisone (200 ug/ml), EGF (100 ug/ml) and penicillin (100 U/ml) and streptomycin […]. THP1-blue ISG cells (Cat. thp-isg, InvivoGen, San Diego, Calif.) were cultured in RPMI media supplemented with 10% FBS, 1% penicillin, streptomycin, Normocin and Zeocin. NK cells, T cells, and tumor-infiltrating lymphocytes were cultured in complete RPMI 1640 medium. Peripheral blood monocytes were separated from healthy volunteers using Ficoll-Paque gradient. Primary human NK and CD8^+ T cells were separated using a NK cell enrichment kit and a CD8^+ T cell enrichment kit, respectively (Cat. 19055 and Cat. 19053, […] Technologies Inc, Cambridge, Mass.). All cells were cultured in 37° C. incubator with 5% CO2. […] Tumors were measured every other day using a caliper, and the tumor volume was calculated as 0.52×length×width^2. […]

MOC2-E6/E7 tumors = test: Real time PCR of Ifna4 and Ifnb1 in tumor homogenates; type: in vivo, C57BL/6 mice; settings: R9F/Q15L study, tumors harvested 25 days post-implantation
Description: Experimental animals and treatments: Female C57BL6 mice, aged 6-8 weeks, were purchased from the Jackson Laboratory, and maintained in a pathogen-free facility at the University of Michigan. All animal work were done in accordance with and approved by the Institutional Animal Care & Use Committee (IACUC) at the University of Michigan, Ann Arbor. Syngeneic squamous cell carcinoma cells were implanted subcutaneously at the neck. Tumors were measured every other day using a caliper, and the tumor volume was calculated as 0.52×length×width^2. […] To test the efficacy of the vaccine formulations, MOC2-E6/E7 cells were implanted subcutaneously on the back of the neck on day 0. […] Anti-PD-L1 (100 μg/100 μl) (clone B7H1, BioXCell, West Lebanon, N.H.) was administered through intraperitoneal injection on day 1 and 4 after each vaccination.

CO/C1=C\C(C)=C\[C@@H](C)[C@@H](O)[C@@H](C)C/C(C)=C/C=C/[C@H](OC)[C@@H]([C@@H](C)[C@@H](O)[C@H](C)[C@@]2(O)C[C@@H](O)[C@H](C)[C@@H](C(C)C)O2)OC1=O [bafilomycin A]
SOX2-induced decrease in STING protein level (STING): partially restored

CCN(CC)CCCC(C)Nc1ccnc2cc(Cl)ccc12 (stereo not drawn) [chloroquine]
SOX2-induced decrease in STING protein level (STING): partially restored

cyclic GMP-AMP [cGAMP]
production of Ifna4 and Ifnb1 in tumors (MOC2-E6/E7 tumors): modest effect
